Reference: patent publication US11926812B2, “Pressure-driven, adjustable throughput fluidics for tissue and cell perifusions” (EnTox Sciences, Inc., priority 2017, dated 2024)

Tested on: liver slices
Experiment: Effect of acetaminophen on liver oxygen consumption rate (OCR) in microperifusion prototype
Assay type: cell-based, rat
Details: two 1 mg liver slices per channel, after about three hours baseline, triplicate channels

CC(=O)Nc1ccc(O)cc1 [acetaminophen]
OCR lowered (6 mM acetaminophen): 40%
OCR lowered (15 mM acetaminophen): 60%
